For data set [1], the target named is human D3 receptor (Homo sapiens, UniProt P35462). As to the kind of experiment: Radioligand binding to cloned human D3 receptor expressed in HEK-293 EBNA cells ([3H]-spiperone).
Description: (§1) HEK293 EBNA cells were transiently transfected with expression plasmids encoding for the human D2 or D3 or for the human 5-HT2A receptor, respectively. The cells were harvested 48 h post-transfection, washed three times with cold PBS and stored at −80° C. prior to use. The pellet was suspended in cold 50 mM Tris-HCl buffer comprising 10 mM EDTA (pH 7.4) and was homogenized with a Polytron (Kinematica A G, Basel, Switzerland) for 20-30 sec at 12.000 rpm. After centrifugation at 48.000×g for 30 min at 4° C., the pellet was resuspended in cold 10 mM Tris-HCl buffer comprising 0.1 mM EDTA (pH 7.4), homogenized, and centrifuged as above. This pellet was further resuspended in a smaller volume of ice cold 10 mM Tris-HCl buffer comprising 0.1 mM EDTA (pH 7.4) and homogenized with a Polytron for 20-30 sec at 12.000 rpm. The protein content of this homogenate was determined with the Bio-Rad (Bradford) Protein Assay (Biorad Laboratories GmbH, München, Germany) according to the instructions of the manufacturer using gamma globulin as the standard. This homogenate was stored at −80° C. in aliquots and thawed immediately prior to use.
(§2) Aliquots of membrane preparations were thawed at RT, resupended in assay buffer (D2, D3: 50 mM Tris-HCl, 120 mM NaCl, 5 mM MgCl2, 1 mM EDTA, 5 mM KCl, 1.5 mM CaCl2, pH=7.4; 5-HT2A: 50 mM Tris-HCl, 10 mM MgCl2, 1 mM EGTA, pH=7.4), homogenized with a Polytron for 20-30 sec at 12.000 rpm and adjusted to a final concentration of approximately 7.5 μg protein/well (D2, D3) and 15 μg protein/well (5-HT2A), respectively.
(§3) The binding affinity (Ki) of the compounds was determined using radioligand binding. Membranes were incubated in a total volume of 200 μl with a fixed concentration of radioligand (final concentration approximately 0.7 nM [^3H]-spiperone for D2, 0.5 nM [^3H]-spiperone for D3, and 1.1 nM [^3H]-ketanserin for 5-HT2A) and ten concentrations of test compound in ranging between 10 μM-0.1 nM for 1 h at RT. At the end of the incubation, the reaction mixtures were filtered on to unifilter 96-well white microplates with bonded GF/C filters (Packard BioScience, Zürich, Switzerland; preincubated for 1 h in 0.1% polyethylenimine (PEI) in assay buffer) with a Filtermate 196 harvester (Packard BioScience) and washed 3 times with cold assay buffer. The nonspecific binding was determined with equally composed reaction mixtures in the presence of 10 μM unlabelled spiperone. Per well 45 μl of Microscint 40 (Perkin Elmer, Schwerzenbach, Switzerland) was added, plates for sealed, shaken for 20 min and counted for 3 min on a Topcount Microplate Scintillation Counter (Can berra Packard S A, Zürich, Switzerland) with quenching correction.
(§4) The CPM value for each duplicate of a concentration of competing compound was averaged (y1), then the % specific binding was calculated according to the equation (((y1−non-specific)/(total binding−non-specific))×100). Graphs were plotted with the % specific binding using XLfit, a curve fitting program that iteratively plots the data using Levenberg-Marquardt algorithm. The single site competition analysis equation used was y=A+((B−A)/(1+((x/C)D))), where y is the % specific binding, A is the minimum y, B is the maximum y, C is the IC50, x is the log 10 of the concentration of the competing compound and D is the slope of the curve (the Hill Coefficient). […] The affinity constant (Ki) was calculated using the Cheng-Prusoff equation Ki=(IC50/1+([L]/Kd), where [L] is the concentration of radioligand and Kd is the dissociation constant of the radioligand at the receptor as determined by the saturation isotherm.
For data set [2], the target named is T1, human D2 receptor (Homo sapiens, UniProt P14416).
T1 construct: expressed in transfected cells; host or cells: HEK293 EBNA cells, transient transfection; membrane preparation
As to the kind of experiment: Radioligand binding to cloned human D2 receptor expressed in HEK-293 EBNA cells ([3H]-spiperone). The following applies: HEK293 EBNA cell membranes, approximately 0.7 nM [3H]-spiperone, 1 h at RT.
Description: as §1, §2, §3, §4

Data set [3] concerns the target human 5-HT2A receptor (Homo sapiens, UniProt P28223). Briefly: Radioligand binding to cloned human 5-HT2A receptor expressed in HEK-293 EBNA cells ([3H]-ketanserin).

These results are taken from patent US8470828B2, “Anellated pyridine compounds” (Hoffmann-La Roche Inc., priority 2010, dated 2013).

Structures are written as SMILES.

The term Ki denotes a dissociation constant, usually derived from enzyme kinetics or from competition with a known ligand. Higher therefore signals lower affinity. Broadly, the melting point is the temperature, or range, at which the solid turns liquid.

Sequence of human D3 receptor (P35462 whole entry): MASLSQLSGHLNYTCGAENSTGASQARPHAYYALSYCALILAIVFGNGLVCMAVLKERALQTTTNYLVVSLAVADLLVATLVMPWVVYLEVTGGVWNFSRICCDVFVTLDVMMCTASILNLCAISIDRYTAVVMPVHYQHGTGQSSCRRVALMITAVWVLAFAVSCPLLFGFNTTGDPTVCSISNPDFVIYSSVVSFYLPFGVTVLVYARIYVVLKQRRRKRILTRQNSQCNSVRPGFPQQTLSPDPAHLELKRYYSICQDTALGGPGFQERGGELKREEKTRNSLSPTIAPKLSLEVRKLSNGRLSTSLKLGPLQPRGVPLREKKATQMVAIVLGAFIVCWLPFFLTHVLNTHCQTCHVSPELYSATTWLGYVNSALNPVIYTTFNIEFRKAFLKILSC
Sequence of human 5-HT2A receptor (P28223 whole entry): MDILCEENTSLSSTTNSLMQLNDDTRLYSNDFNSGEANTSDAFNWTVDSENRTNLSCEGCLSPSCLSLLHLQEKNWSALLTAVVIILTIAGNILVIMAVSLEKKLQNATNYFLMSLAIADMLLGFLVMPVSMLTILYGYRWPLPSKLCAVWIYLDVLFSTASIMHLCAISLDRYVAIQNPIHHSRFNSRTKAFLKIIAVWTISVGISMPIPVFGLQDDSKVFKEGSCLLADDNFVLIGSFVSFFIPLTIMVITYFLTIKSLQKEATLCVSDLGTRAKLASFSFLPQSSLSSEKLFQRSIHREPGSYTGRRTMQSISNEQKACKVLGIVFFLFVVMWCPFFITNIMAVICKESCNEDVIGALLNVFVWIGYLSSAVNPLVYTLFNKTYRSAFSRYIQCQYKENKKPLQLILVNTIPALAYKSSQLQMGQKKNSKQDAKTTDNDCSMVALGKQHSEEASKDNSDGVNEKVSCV
T1 sequence (P14416 whole entry): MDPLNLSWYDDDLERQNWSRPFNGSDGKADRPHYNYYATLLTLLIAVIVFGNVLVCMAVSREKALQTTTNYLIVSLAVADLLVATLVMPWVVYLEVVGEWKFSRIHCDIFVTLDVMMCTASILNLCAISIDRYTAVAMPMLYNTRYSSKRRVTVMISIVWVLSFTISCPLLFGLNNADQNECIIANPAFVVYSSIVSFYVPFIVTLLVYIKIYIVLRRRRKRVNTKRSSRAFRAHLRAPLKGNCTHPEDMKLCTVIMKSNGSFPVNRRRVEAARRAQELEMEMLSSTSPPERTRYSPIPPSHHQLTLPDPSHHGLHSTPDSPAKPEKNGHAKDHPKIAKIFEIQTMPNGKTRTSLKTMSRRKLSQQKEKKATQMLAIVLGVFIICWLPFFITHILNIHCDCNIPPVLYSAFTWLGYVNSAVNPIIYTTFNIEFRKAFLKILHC

Compound `O=C(N[C@H]1CC[C@H](CCN2CCN(c3nccc4c3OCC4)CC2)CC1)C1CCCO1` (mixture of isomers) [Example 82, (RS)-Tetrahydro-furan-2-carboxylic acid trans-(4-{2-[4-(2,3-dihydro-furo[2,3-c]pyridin-7-yl)-piperazin-1-yl]-ethyl}-cyclohexyl)-amide] showed a melting point of 145 °C. The same compound displayed a Ki in data set [1] of 72.8 nM. This compound registered a Ki in data set [2] of 1140 nM. The affinity in data set [3], expressed as Ki, was 20.4 nM.

With `CCC(C)C(=O)N[C@H]1CC[C@H](CCN2CCN(c3nccc4c3OCC4)CC2)CC1` (mixture of isomers) [Example 83, trans-N-(4-{2-[4-(2,3-Dihydro-furo[2,3-c]pyridin-7-yl)-piperazin-1-yl]-ethyl}-cyclohexyl)-(RS)-2-methyl-butyramide], the melting point is 196.5 °C. In data set [1], this compound had a Ki of 17.3 nM. Further, the affinity in data set [2] corresponds to a Ki of 714 nM. The compound further gave a Ki in data set [3] of 48.9 nM.

The compound `O=C(N[C@H]1CC[C@H](CCN2CCN(c3nccc4c3OCC4)CC2)CC1)C1CCCOC1` (mixture of isomers) [Example 97, (RS)-Tetrahydro-pyran-3-carboxylic acid trans-(4-{2-[4-(2,3-dihydro-furo[2,3-c]pyridin-7-yl)-piperazin-1-yl]-ethyl}-cyclohexyl)-amide] displayed a melting point of 203 °C. The same compound came in with a Ki in data set [1] of 23.1 nM. Besides, the affinity in data set [2] corresponds to a Ki of 604 nM. In data set [3], this compound came in with a Ki of 27.8 nM.

The compound `COC(C)CC(=O)N[C@H]1CC[C@H](CCN2CCN(c3nccc4c3OCC4)CC2)CC1` (mixture of isomers) [Example 101, trans-N-(4-{2-[4-(2,3-Dihydro-furo[2,3-c]pyridin-7-yl)-piperazin-1-yl]-ethyl}-cyclohexyl)-(RS)-3-methoxy-butyramide] displayed a melting point of 168.5 °C. The compound further yielded a Ki in data set [1] of 8.85 nM. Moreover, the affinity in data set [2], expressed as Ki, was 633 nM. In data set [3], this compound returned a Ki of 55.5 nM.

Consider `CC(=O)N[C@H]1CC[C@H](CCN2CCN(c3nccc4c3OCC4)CC2)CC1` [Example 6, trans-N-(4-{2-[4-(2,3-Dihydro-furo[2,3-c]pyridin-7-yl)-piperazin-1-yl]-ethyl}-cyclohexyl)-acetamide], for which the melting point is 195 °C. The same compound yielded a Ki in data set [1] of 4 nM. In data set [2], this compound returned a Ki of 472 nM. Moreover, in data set [3], affinity was put at a Ki of 58.2 nM.

`O=C(N[C@H]1CC[C@H](CCN2CCN(c3nccc4c3OCC4)CC2)CC1)C1CCOCC1` [Example 7, trans-Tetrahydro-pyran-4-carboxylic acid (4-{2-[4-(2,3-dihydro-furo[2,3-c]pyridin-7-yl)-piperazin-1-yl]-ethyl}-cyclohexyl)-amide] gave a melting point of 236.5 °C. The compound further returned a Ki in data set [1] of 13.1 nM. Besides, the affinity in data set [2] corresponds to a Ki of 354 nM. The Ki in data set [3] was 15.6 nM.

`O=C(CC1CCOCC1)N[C@H]1CC[C@H](CCN2CCN(c3nccc4c3OCC4)CC2)CC1` [Example 8, trans-N-(4-{2-[4-(2,3-Dihydro-furo[2,3-c]pyridin-7-yl)-piperazin-1-yl]-ethyl}-cyclohexyl)-2-(tetrahydro-pyran-4-yl)-acetamide] showed a melting point of 222.5 °C. The same compound yielded a Ki in data set [1] of 7.49 nM. Further, affinity in data set [2] was put at a Ki of 1480 nM. For the same compound, the Ki in data set [3] was 48.9 nM.

`COCCC(=O)N[C@H]1CC[C@H](CCN2CCN(c3nccc4c3OCC4)CC2)CC1` [Example 9, trans-N-(4-{2-[4-(2,3-Dihydro-furo[2,3-c]pyridin-7-yl)-piperazin-1-yl]-ethyl}-cyclohexyl)-3-methoxy-propionamide] showed a melting point of 180 °C. In addition, the Ki in data set [1] is 5.14 nM. Also, the affinity in data set [2] corresponds to a Ki of 991 nM. In data set [3], this compound came in with a Ki of 67.5 nM.

Consider `CC(=O)N[C@H]1CC[C@H](CCN2CCN(c3nccc4ccoc34)CC2)CC1` [Example 10, trans-N-{4-[2-(4-Furo[2,3-c]pyridin-7-yl-piperazin-1-yl)-ethyl]-cyclohexyl}-acetamide], for which the melting point was 157 °C. In data set [1], this compound had a Ki of 6.44 nM. In data set [2], this compound displayed a Ki of 684 nM. The compound further showed an inhibition constant (Ki) in data set [3] of 18.8 nM.

`O=C(N[C@H]1CC[C@H](CCN2CCN(c3nccc4ccoc34)CC2)CC1)C1CCOCC1` [Example 11, Tetrahydro-pyran-4-carboxylic acid trans-{4-[2-(4-furo[2,3-c]pyridin-7-yl-piperazin-1-yl)-ethyl]-cyclohexyl}-amide] gave a melting point of 211 °C. In data set [1], this compound returned a Ki of 22.6 nM. This compound also registered a Ki in data set [2] of 511 nM. Also, the affinity in data set [3] corresponds to a Ki of 7.29 nM.

As to `O=C(CC1CCOCC1)N[C@H]1CC[C@H](CCN2CCN(c3nccc4ccoc34)CC2)CC1` [Example 12, trans-N-{4-[2-(4-Furo[2,3-c]pyridin-7-yl-piperazin-1-yl)-ethyl]-cyclohexyl}-2-(tetrahydro-pyran-4-yl)-acetamide], the melting point was 213 °C. Further, in data set [1], the affinity, expressed as Ki, was 14.7 nM. The compound further came in with a Ki in data set [2] of 1150 nM. In data set [3], this compound showed a Ki of 21.7 nM.

Take `COCCC(=O)N[C@H]1CC[C@H](CCN2CCN(c3nccc4ccoc34)CC2)CC1` [Example 13, trans-N-{4-[2-(4-Furo[2,3-c]pyridin-7-yl-piperazin-1-yl)-ethyl]-cyclohexyl}-3-methoxy-propionamide]: the melting point was 146 °C. Also, the Ki in data set [1] was found to be 7.85 nM. For the same compound, the Ki in data set [2] was found to be 1130 nM. Besides, in data set [3], the affinity corresponds to a Ki of 20.7 nM.

`CCC(=O)N[C@H]1CC[C@H](CCN2CCN(c3nccc4ccoc34)CC2)CC1` [Example 14, trans-N-{4-[2-(4-Furo[2,3-c]pyridin-7-yl-piperazin-1-yl)-ethyl]-cyclohexyl}-propionamide] came in with a melting point of 187.5 °C. Besides, in data set [1], the Ki came to 3.57 nM. In data set [2], this compound gave a Ki of 502 nM. Further, the affinity in data set [3] corresponds to a Ki of 9.48 nM.

The compound `COCC(=O)N[C@H]1CC[C@H](CCN2CCN(c3nccc4ccoc34)CC2)CC1` [Example 16, trans-N-{4-[2-(4-Furo[2,3-c]pyridin-7-yl-piperazin-1-yl)-ethyl]-cyclohexyl}-2-methoxy-acetamide] had a melting point of 132 °C. In addition, the Ki in data set [1] was determined as 17.7 nM. The Ki in data set [2] is 1230 nM. In data set [3], this compound showed a Ki of 9.97 nM.

In turn, `CS(=O)(=O)CC(=O)N[C@H]1CC[C@H](CCN2CCN(c3nccc4ccoc34)CC2)CC1` [Example 17, trans-N-{4-[2-(4-Furo[2,3-c]pyridin-7-yl-piperazin-1-yl)-ethyl]-cyclohexyl}-2-methanesulfonyl-acetamide] came in with a melting point of 182 °C. In data set [1], the affinity, expressed as Ki, was 4.26 nM. This compound showed a Ki in data set [2] of 576 nM. This compound registered a Ki in data set [3] of 10.9 nM.

`CCC(=O)N[C@H]1CC[C@H](CCN2CCN(c3nccc4c3OCC4)CC2)CC1` [Example 18, trans-N-(4-{2-[4-(2,3-Dihydro-furo[2,3-c]pyridin-7-yl)-piperazin-1-yl]-ethyl}-cyclohexyl)-propionamide]: the melting point turned out to be 196 °C. The compound also came in with a Ki in data set [1] of 3.94 nM. In data set [2], this compound showed a Ki of 648 nM. For the same compound, the affinity in data set [3], expressed as Ki, was 43.3 nM.

Consider `O=C(CC1COCCO1)N[C@H]1CC[C@H](CCN2CCN(c3nccc4c3OCC4)CC2)CC1` (stereo partly drawn) [Example 19, trans-N-(4-{2-[4-(2,3-Dihydro-furo[2,3-c]pyridin-7-yl)-piperazin-1-yl]-ethyl}-cyclohexyl)-2-[1,4]dioxan-2-yl-acetamide], for which the melting point worked out at 194.5 °C. The compound further showed a Ki in data set [1] of 8.9 nM. The compound further gave a Ki in data set [2] of 1220 nM. In data set [3], the Ki was 29.7 nM.

As for `COCC(=O)N[C@H]1CC[C@H](CCN2CCN(c3nccc4c3OCC4)CC2)CC1` [Example 20, trans-N-(4-{2-[4-(2,3-Dihydro-furo[2,3-c]pyridin-7-yl)-piperazin-1-yl]-ethyl}-cyclohexyl)-2-methoxy-acetamide], the melting point was found to be 126.5 °C. Moreover, the affinity in data set [1], expressed as Ki, was 12.8 nM. Also, in data set [2], affinity was put at a Ki of 1280 nM. Moreover, the affinity in data set [3] corresponds to a Ki of 32.9 nM.

Regarding `CS(=O)(=O)CC(=O)N[C@H]1CC[C@H](CCN2CCN(c3nccc4c3OCC4)CC2)CC1` [Example 21, trans-N-(4-{2-[4-(2,3-Dihydro-furo[2,3-c]pyridin-7-yl)-piperazin-1-yl]-ethyl}-cyclohexyl)-2-methanesulfonyl-acetamide], the melting point was found to be 187 °C. For the same compound, the Ki in data set [1] came out at 4.36 nM. In data set [2], this compound showed a Ki of 680 nM. This compound registered a Ki in data set [3] of 52.1 nM.

Compound `O=C(N[C@H]1CC[C@H](CCN2CCN(c3nccc4c3OCC4)CC2)CC1)c1ccccc1` [Example 22, trans-N-(4-{2-[4-(2,3-Dihydro-furo[2,3-c]pyridin-7-yl)-piperazin-1-yl]-ethyl}-cyclohexyl)-benzamide] yielded a melting point of 221 °C. In data set [1], this compound had a Ki of 3.34 nM. In addition, the affinity in data set [2] corresponds to a Ki of 247 nM. In addition, the Ki in data set [3] was determined as 14.7 nM.

For `O=C(N[C@H]1CC[C@H](CCN2CCN(c3nccc4c3OCC4)CC2)CC1)C1CCC1` [Example 23, Cyclobutanecarboxylic acid trans-(4-{2-[4-(2,3-dihydro-furo[2,3-c]pyridin-7-yl)-piperazin-1-yl]-ethyl}-cyclohexyl)-amide], the melting point is 186 °C. Also, in data set [1], the Ki came to 5.89 nM. In data set [2], the Ki was found to be 276 nM. In data set [3], this compound registered a Ki of 30.3 nM.

In the case of `CC(C)CC(=O)N[C@H]1CC[C@H](CCN2CCN(c3nccc4c3OCC4)CC2)CC1` [Example 24, trans-N-(4-{2-[4-(2,3-Dihydro-furo[2,3-c]pyridin-7-yl)-piperazin-1-yl]-ethyl}-cyclohexyl)-3-methyl-butyramide], the melting point was determined as 187 °C. Moreover, in data set [1], the Ki was found to be 3.19 nM. Further, the Ki in data set [2] worked out at 350 nM. In addition, the affinity in data set [3], expressed as Ki, was 44.9 nM.
